Here are results for 7 molecules from ChEMBL document CHEMBL5036301, “Heteroaryl ether analogues of an antileishmanial 7-substituted 2-nitroimidazooxazine lead afford attenuated hERG risk: In vitro and in vivo appraisal” (Eur J Med Chem, 2021).

SMILES strings stand for the structures. ≈ marks a conversion by molar mass, not a printed value.

Data set [1] in a line: Stability of compound in human liver microsomes assessed as percentage of parent compound remaining at 1 uM measured after 1 hr. (In general: Liver microsomes are vesicles of endoplasmic reticulum, rich in cytochrome P450 enzymes.)
Data set [2] has as its system Leishmania donovani. The experiment in a line: Antileishmanial activity against Leishmania donovani amastigotes infected in BALB/C mouse assessed as reduction in parasite burden in liver tissue at 50 mg/kg, po administered once per day for 5 days relative to control. To be noted: 120 h, time 5 day. It is filed as functional.
In data set [3] the test system is Trypanosoma cruzi. The data set can be described thus: Antitrypanosomal activity against Trypanosoma cruzi Tulahuen CL2 infected in human MRC-5 cells assessed as parasite growth. It is filed as functional, organism-based. To be noted: Tulahuen CL2, MRC5.
Data set [4] can be described thus: Stability of compound in CD-1 mouse liver microsomes assessed as percentage of parent compound remaining at 1 uM measured after 1 hr.
For data set [5], the system named is MRC5. The experiment in a line: Cytotoxicity against human MRC5 cells assessed as cell viability after 72 hrs by fluorimetric analysis. It is filed as ADME, cell-based. The settings on record: MRC5, 72 h.
A short description of data set [6]: Kinetic solubility of compound in water at pH7 by HPLC analysis. The settings on record: pH 7.
The subject of data set [7] is Leishmania infantum. The data set can be described thus: Antileishmanial activity against Leishmania infantum MHOM/MA(BE)/67 amastigotes infected in macrophages assessed as reduction in parasite burden by giemsa staining based microscopic analysis. The format is functional, organism-based.
Data set [8] in a line: Stability of compound in hamster liver microsomes assessed as percentage of parent compound remaining at 1 uM measured after 1 hr. The settings on record: chinese hamster.
In data set [9] the test system is Leishmania infantum. The data set can be described thus: animal or person. To be noted: in Mesocricetus auratus, po, 120 h, read-out: INH.
Description: Antileishmanial activity against Leishmania infantum amastigotes infected in golden hamster assessed as reduction in parasite load in spleen tissue at 12.5 mg/kg, po administered once daily for 5 days relative to control
Data set [10] relates to Leishmania donovani. The experiment in a line: Antileishmanial activity against Leishmania donovani amastigotes infected in BALB/C mouse assessed as reduction in parasite burden in liver tissue at 6.25 mg/kg, po administered once per day for 5 days relative to control. The format is functional. To be noted: 120 h, time 5 day.
Data set [11] concerns Leishmania donovani. The experiment in a line: Antileishmanial activity against Leishmania donovani amastigotes infected in mouse J774A.1 cells incubated for 72 hrs by luciferase assay. It is filed as functional, organism-based. To be noted: J774.A1, 72 h.
Data set [12] relates to Leishmania infantum. The data set can be described thus: animal or person. The settings on record: in Mesocricetus auratus, po, 120 h, read-out: INH. This is another data set of the same source.
Description: Antileishmanial activity against Leishmania infantum amastigotes infected in golden hamster assessed as reduction in parasite load in liver tissue at 12.5 mg/kg, po administered once daily for 5 days relative to control
Data set [13] concerns Leishmania infantum. The data set can be described thus: Antileishmanial activity against Leishmania infantum amastigotes infected in golden hamster assessed as reduction in parasite load in liver tissue at 50 mg/kg, po administered once daily for 5 days relative to control. The format is functional. To be noted: 120 h, time 5 day.
Data set [14] deals with Leishmania donovani. The experiment in a line: Antileishmanial activity against Leishmania donovani amastigotes infected in BALB/C mouse assessed as reduction in parasite burden in liver tissue at 25 mg/kg, po administered once per day for 5 days relative to control. To be noted: 120 h, read-out: INH.
The test system of data set [15] is Leishmania infantum. The experiment in a line: Antileishmanial activity against Leishmania infantum amastigotes infected in golden hamster assessed as reduction in parasite load in spleen tissue at 50 mg/kg, po administered once daily for 5 days relative to control. The format is functional. To be noted: 120 h, time 5 day.
Data set [16] deals with Leishmania donovani. The data set can be described thus: Antileishmanial activity against Leishmania donovani amastigotes infected in BALB/C mouse assessed as reduction in parasite burden in liver tissue at 3.13 mg/kg, po administered once per day for 5 days relative to control. It is filed as functional. The settings on record: 120 h, time 5 day.
The test system of data set [17] is Leishmania infantum. The experiment in a line: Antileishmanial activity against Leishmania infantum amastigotes infected in golden hamster assessed as reduction in parasite load in spleen tissue at 25 mg/kg, po administered once daily for 5 days relative to control. The settings on record: in Mesocricetus auratus, 120 h, read-out: INH.
Data set [18] relates to Leishmania infantum. The data set can be described thus: Antileishmanial activity against Leishmania infantum amastigotes infected in golden hamster assessed as reduction in parasite load in liver tissue at 25 mg/kg, po administered once daily for 5 days relative to control. The settings on record: in Mesocricetus auratus, 120 h, read-out: INH.
The test system of data set [19] is Leishmania infantum. The data set can be described thus: Antileishmanial activity against Leishmania infantum amastigotes infected in golden hamster assessed as reduction in parasite load in bone marrow tissue at 50 mg/kg, po administered once daily for 5 days relative to control. The format is functional. To be noted: 120 h, time 5 day.
Data set [20] relates to Leishmania infantum. The experiment in a line: animal or person. The settings on record: in Mesocricetus auratus, po, 120 h, read-out: INH. The source holds these as a separate data set.
Description: Antileishmanial activity against Leishmania infantum amastigotes infected in golden hamster assessed as reduction in parasite load in bone marrow tissue at 12.5 mg/kg, po administered once daily for 5 days relative to control
Data set [21] has as its system Mycobacterium tuberculosis. The experiment in a line: Antitubercular activity against Mycobacterium tuberculosis H37Rv assessed as reduction in microbial growth under anaerobic condition by luminescence analysis. The format is functional.
In data set [22] the test system is Mycobacterium tuberculosis. The data set can be described thus: Antitubercular activity against Mycobacterium tuberculosis H37Rv assessed as reduction in microbial growth under aerobic condition by luminescence analysis. The format is functional.
Data set [23] is described as follows: Kinetic solubility of compound in 0.1 M Hcl at pH1 by HPLC analysis. The settings on record: pH 1, read-out: Kinetic_solubility. The format is physicochemical.
Data set [24] concerns the target hERG (KCNH2) (Homo sapiens, UniProt Q12809). The experiment in a line: Inhibition of human ERG expressed in HEK293 cells at 10 uM relative to control. It is filed as cell-based. The settings on record: HEK293 cells expressing human ERG.
The nature of data set [25]: Selectivity index, ratio IC50 for cytotoxicity against human MRC5 cells to IC50 for antileishmanial activity against Leishmania infantum MHOM/MA(BE)/67 amastigotes infected in macrophages.
Data set [26] can be described thus: AUClast in mouse at 25 mg/kg, po measured upto 24 hrs LC-MS/MS analysis. To be noted: in vivo.
Data set [27] can be described thus: in vivo. To be noted: mouse, po, 25 mg/kg.
A short description of data set [28]: in vivo. The settings on record: mouse, po, 25 mg/kg. This is another data set of the same source.
A short description of data set [29]: in vivo. To be noted: chinese hamster, po.
The nature of data set [30]: in vivo. The settings on record: chinese hamster, po. The source holds these as a separate data set.
The nature of data set [31]: AUClast in hamster at 41 to 51 mg/kg, po measured upto 24 hrs LC-MS/MS analysis. To be noted: chinese hamster, in vivo.
The nature of data set [32]: Half life in mouse at 25 mg/kg, po measured upto 24 hrs LC-MS/MS analysis. To be noted: in vivo.
The test system of data set [33] is Leishmania infantum. The data set can be described thus: Antileishmanial activity against Leishmania infantum amastigotes infected in golden hamster assessed as reduction in parasite load in bone marrow tissue at 40 mg/kg, po administered once daily for 5 days relative to control. It is filed as functional. The settings on record: 120 h, time 5 day.
Data set [34] concerns Leishmania infantum. The data set can be described thus: Antileishmanial activity against Leishmania infantum amastigotes infected in golden hamster assessed as reduction in parasite load in liver tissue at 40 mg/kg, po administered once daily for 5 days relative to control. It is filed as functional. To be noted: 120 h, time 5 day.
In data set [35] the test system is Leishmania infantum. The data set can be described thus: Antileishmanial activity against Leishmania infantum amastigotes infected in golden hamster assessed as reduction in parasite load in spleen tissue at 40 mg/kg, po administered once daily for 5 days relative to control. The format is functional. The settings on record: 120 h, time 5 day.

Sequence of hERG (KCNH2) (Q12809 whole entry): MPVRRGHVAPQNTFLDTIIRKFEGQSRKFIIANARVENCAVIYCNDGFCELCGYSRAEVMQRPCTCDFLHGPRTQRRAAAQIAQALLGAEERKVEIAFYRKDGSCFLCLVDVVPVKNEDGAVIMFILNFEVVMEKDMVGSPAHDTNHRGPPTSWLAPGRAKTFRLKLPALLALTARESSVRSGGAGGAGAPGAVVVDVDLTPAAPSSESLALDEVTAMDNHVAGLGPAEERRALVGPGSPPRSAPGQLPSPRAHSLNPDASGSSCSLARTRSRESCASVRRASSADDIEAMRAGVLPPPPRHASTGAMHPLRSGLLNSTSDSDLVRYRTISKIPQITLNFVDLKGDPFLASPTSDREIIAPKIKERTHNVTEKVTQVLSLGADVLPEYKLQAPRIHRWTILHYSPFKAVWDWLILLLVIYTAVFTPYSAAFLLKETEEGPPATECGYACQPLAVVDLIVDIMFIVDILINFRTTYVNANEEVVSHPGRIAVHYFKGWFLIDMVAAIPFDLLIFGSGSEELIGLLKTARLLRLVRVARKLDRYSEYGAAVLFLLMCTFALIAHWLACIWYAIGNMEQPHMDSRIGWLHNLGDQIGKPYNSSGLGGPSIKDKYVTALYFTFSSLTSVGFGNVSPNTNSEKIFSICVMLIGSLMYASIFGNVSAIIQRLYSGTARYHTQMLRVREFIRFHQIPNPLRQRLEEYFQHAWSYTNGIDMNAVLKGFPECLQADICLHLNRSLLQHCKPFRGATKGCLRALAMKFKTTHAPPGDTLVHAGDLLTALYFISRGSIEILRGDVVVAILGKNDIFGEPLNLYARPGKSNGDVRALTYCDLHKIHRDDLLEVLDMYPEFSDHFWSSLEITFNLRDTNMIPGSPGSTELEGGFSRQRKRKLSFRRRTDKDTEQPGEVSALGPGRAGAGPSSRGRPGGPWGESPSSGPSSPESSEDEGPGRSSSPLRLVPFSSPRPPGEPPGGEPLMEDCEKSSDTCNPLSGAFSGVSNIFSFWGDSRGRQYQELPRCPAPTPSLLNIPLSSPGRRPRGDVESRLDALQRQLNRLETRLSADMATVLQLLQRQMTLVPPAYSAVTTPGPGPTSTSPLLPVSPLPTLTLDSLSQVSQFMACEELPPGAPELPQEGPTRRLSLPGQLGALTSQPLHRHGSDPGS

Usually fraction remaining stands for the share of the starting amount still present when the sample was taken. Usually IC50 stands for the midpoint of a concentration-inhibition curve. On to `CC1(COc2ccc(C(F)(F)F)nn2)CCn2cc([N+](=O)[O-])nc2O1` (stereo not given), for which the amount remaining at 1 h, 1 µM was determined as 90% in [1], 89% in data set [4] and 58% in [8]. The inhibition in vivo at 50 mg/kg in data set [2] worked out at 0%. For the same molecule, the IC50 in data set [3] was 3.8 µM; in data set [5], greater than 64 µM; in data set [7] it was greater than 64 µM. In [6], this molecule returned a solubility kinetic of 10 µg/mL (≈ 27.8 µM).

Regarding `C[C@@]1(COc2ccc(OC(F)(F)F)cc2)CCn2cc([N+](=O)[O-])nc2O1`, the inhibition in vivo at 12.5 mg/kg in data set [9] turned out to be 44.4%; in data set [12], 47.3%; in data set [20] it was 0%. The inhibition in vivo at 6.25 mg/kg in data set [10] was determined as 49%. Also, the IC50 in [11] came to 0.37 µM. Further, the inhibition in vivo at 50 mg/kg in [13] turned out to be 100%; in [15] it was 99.9%; in data set [19] it was 99.7%. Further, the inhibition in vivo at 25 mg/kg in [14] is 66%; in data set [17], 92.3%; in [18] it was 97.2%. Also, the inhibition in vivo at 3.13 mg/kg in data set [16] is 18%.

Usually MIC stands for the least concentration at which growth counts as inhibited. As usually defined, the inhibition is the change of the read-out against control, counted positive when it falls. Read a low inhibition as a weak effect. As for `O=[N+]([O-])c1cn2c(n1)OC(COc1ccc(C(F)(F)F)cn1)CC2` (stereo not given), the MIC is 20 µM in [21] and 2.6 µM in data set [22]. Moreover, the half-inhibitory concentration (IC50) in data set [11] was 0.08 µM; in data set [3], 1 µM; in data set [5] it was greater than 64 µM; in data set [7] it was greater than 64 µM. Besides, the inhibition in vivo at 50 mg/kg in data set [2] was found to be 46%. For the same molecule, the values for the solubility kinetic in data set [6] and in [23] were 37 µg/mL (≈ 107 µM) and 32 µg/mL (≈ 93 µM), respectively. For the same molecule, the inhibition at 10 µM in data set [24] was found to be 4%.

Consider `CC1(COc2ncc(C(F)(F)F)cn2)CCn2cc([N+](=O)[O-])nc2O1` (stereo not given), for which the share remaining at 1 h, 1 µM in data set [1] was determined as 88%; in [4], 86%; in data set [8], 40%. Moreover, the inhibition in vivo at 50 mg/kg in data set [2] was found to be 35%. Also, the values for the IC50 in data set [3], in data set [5] and in data set [7] were 3.1 µM, greater than 64 µM and greater than 64 µM, respectively. This molecule also gave a solubility kinetic in data set [6] of 9.3 µg/mL (≈ 25.9 µM).

`CC1(COc2ncc(C(F)(F)F)cc2F)CCn2cc([N+](=O)[O-])nc2O1` (stereo not given): the share remaining at 1 h, 1 µM in data set [1] worked out at 64%; in [4], 44%; in [8] it was 0.4%. Further, the inhibition in vivo at 50 mg/kg in data set [2] came to 56%. The concentration for half-maximal inhibition (IC50) was 0.73 µM in data set [3], greater than 64 µM in data set [5] and 0.47 µM in [7]. Further, the selectivity ratio in [25] is greater than 136. This molecule also returned a solubility kinetic in data set [6] of 13 µg/mL (≈ 34.6 µM).

For orientation: AUC(0-t) means the area under the concentration-time curve up to a stated or last time point. Lower therefore signals low exposure. One may read the Cmax as the peak of the concentration-time curve. The term Tmax denotes the time at which the peak concentration occurs. The half-life is how long it takes for the measured level to halve. `C[C@@]1(COc2ccc(C(F)(F)F)cn2)CCn2cc([N+](=O)[O-])nc2O1`: the values for the AUC(0-t) at 24 h in data set [26] and in data set [31] were 183000 ng·h/mL and 924 ng·h/mL, respectively. For the same molecule, the figures for the Cmax at 24 h in [27] and in data set [29] were 33000 ng/mL and 310 ng/mL, respectively. Besides, the inhibition in vivo at 50 mg/kg amounted to 38% in data set [2], 46.5% in data set [13], 52.3% in data set [15] and 37.4% in data set [19]. Besides, the IC50 in [3] was 0.98 µM; in data set [5], greater than 64 µM; in data set [7], 0.75 µM. The Tmax at 24 h stood at 2 h in data set [28] and 4.3 h in data set [30]. The solubility kinetic in data set [6] was determined as 21 µg/mL (≈ 58.6 µM). The half-life at 24 h in [32] is 1.5 h.

Consider `CCCCCCCCCCCCCCCCOP(=O)([O-])OCC[N+](C)(C)C` [MILTEFOSINE], for which the inhibition in vivo at 40 mg/kg in data set [33] worked out at 94.9%; in data set [34] it was 98.5%; in data set [35], 99.7%.
